Numbers after ± are expanded uncertainties.
Experiment: excess molar enthalpy (molar enthalpy of mixing); xn = mol fraction of the nth substance listed
Details: 298.15 K, 101 kPa, Liquid, Calvet calorimetry

OCCOCCO [diethylene glycol] + CCO
Details	excess molar enthalpy [kcal/mol]
x2 = 0.1048	0.0182 ± 0.000478
x2 = 0.1991	0.0308 ± 0.000478
x2 = 0.2967	0.0461 ± 0.000717
x2 = 0.4009	0.0595 ± 0.000956
x2 = 0.4963	0.0626 ± 0.000956
x2 = 0.5879	0.0669 ± 0.000956
x2 = 0.7041	0.0602 ± 0.000956
x2 = 0.7958	0.0488 ± 0.000717
x2 = 0.9006	0.0289 ± 0.000478

OCCOCCOCCO [triethylene glycol] + CCO
Details	excess molar enthalpy [kcal/mol]
x2 = 0.104	0.028 ± 0.000478
x2 = 0.2042	0.0586 ± 0.000717
x2 = 0.301	0.0837 ± 0.0012
x2 = 0.399	0.104 ± 0.0012
x2 = 0.5002	0.118 ± 0.00143
x2 = 0.599	0.121 ± 0.00143
x2 = 0.6993	0.112 ± 0.00143
x2 = 0.7995	0.0963 ± 0.0012
x2 = 0.8992	0.0621 ± 0.000956

OCCOCCO [diethylene glycol] + O
Details	excess molar enthalpy [kcal/mol]
x2 = 0.1026	-0.0657 ± 0.000956
x2 = 0.2012	-0.122 ± 0.00143
x2 = 0.2094	-0.125 ± 0.00143
x2 = 0.3067	-0.177 ± 0.00191
x2 = 0.4068	-0.223 ± 0.00239
x2 = 0.4937	-0.248 ± 0.00263
x2 = 0.5018	-0.255 ± 0.00287
x2 = 0.6003	-0.285 ± 0.00311
x2 = 0.6996	-0.298 ± 0.00311
x2 = 0.7998	-0.28 ± 0.00311
x2 = 0.8999	-0.205 ± 0.00239
x2 = 0.9002	-0.207 ± 0.00239
x2 = 0.9498	-0.129 ± 0.00143

OCCO [1,2-ethanediol] + O
Details	excess molar enthalpy [kcal/mol]
x2 = 0.1014	-0.0416 ± 0.000717
x2 = 0.1994	-0.0805 ± 0.000956
x2 = 0.2091	-0.0829 ± 0.0012
x2 = 0.3051	-0.115 ± 0.00143
x2 = 0.3674	-0.134 ± 0.00167
x2 = 0.3995	-0.141 ± 0.00167
x2 = 0.4807	-0.153 ± 0.00167
x2 = 0.5455	-0.159 ± 0.00191
x2 = 0.6144	-0.167 ± 0.00191
x2 = 0.669	-0.171 ± 0.00191
x2 = 0.7949	-0.163 ± 0.00191
x2 = 0.8656	-0.136 ± 0.00167
x2 = 0.915	-0.101 ± 0.0012

OCC(O)CO [glycerol] + O
Details	excess molar enthalpy [kcal/mol]
x2 = 0.1028	-0.0363 ± 0.000717
x2 = 0.2192	-0.0698 ± 0.000956
x2 = 0.3038	-0.0925 ± 0.0012
x2 = 0.3964	-0.113 ± 0.00143
x2 = 0.5022	-0.131 ± 0.00143
x2 = 0.5956	-0.143 ± 0.00167
x2 = 0.6991	-0.146 ± 0.00167
x2 = 0.8005	-0.134 ± 0.00167
x2 = 0.8995	-0.087 ± 0.0012

OCCOCCOCCO [triethylene glycol] + O
Details	excess molar enthalpy [kcal/mol]
x2 = 0.1291	-0.105 ± 0.0012
x2 = 0.2167	-0.188 ± 0.00215
x2 = 0.3145	-0.258 ± 0.00287
x2 = 0.4016	-0.32 ± 0.00335
x2 = 0.5006	-0.384 ± 0.00406
x2 = 0.6006	-0.431 ± 0.00454
x2 = 0.6999	-0.448 ± 0.00478
x2 = 0.7985	-0.422 ± 0.00454
x2 = 0.9013	-0.312 ± 0.00335
